Data: ChEMBL document CHEMBL1201862, “PubChem BioAssay data set” (2004)
Activity calls are given as the source filed them.

Columns and labels:
[1] = molecular target: G-protein coupled receptor 55 (Homo sapiens, UniProt Q9Y2T6); assay: selective activators of receptor GPR55 – imaging, U2OS cells, beta-arrestin-GFP redistribution, primary screen (AID 1961); assay type: functional
[2] = Luminescence Cell-Based Dose Response HTS to Identify Inhibitors of 5'UTR Stem-Loop Driven Prion Protein mRNA Translation in H4 Neuroglioblastoma Cells. [Related pubchem assays: 1827 (Project Summary), 1813 (Primary HTS)]; assay type: functional
HEK293 [3] = assay: cells; assay type: functional, cell-based; conditions: Homo sapiens
HEK293 [4] = assay: cells; assay type: functional, cell-based; conditions: Homo sapiens; remark: listed apart in the source
[5] = luciferase reporter signal reduction – luminescence, H4-C neuroglioblastoma cells, dose response (AID 2458); assay type: functional, cell-based;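 note: H4 neuroglioblastoma cells stably carrying a luciferase reporter gene fusion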
HEK293 [6] = assay: cells; assay type: functional, cell-based; conditions: Homo sapiens; remark: listed apart in the source
[7] = alpha-synuclein stem-loop translation blockers – luminescence, H4 neuroglioblastoma cells, dose confirmation, confirmation (AID 2454); assay type: functional, cell-based;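 note: H4 neuroglioblastoma cells carrying an alpha-synuclein 5'UTR luciferase reporter; potency for inhibition of the luciferase signal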
[8] = luciferase reporter signal suppression in cells – H4 neuroglioma cells, luminescence, dose response (AID 1990); assay type: functional, cell-based
[9] = alpha-synuclein stem-loop luciferase translation blockers – H4 neuroglioma cells, luminescence, confirmation (AID 1988); assay type: functional, cell-based
[10] = molecular target: Nucleotide-binding oligomerization domain-containing protein 2 (Homo sapiens, UniProt Q9HC29); assay: inhibition of NOD2-driven NF-kB reporter – cell-based, luminescence, uHTS, HEK293 (AID 1566); assay type: functional
Nucleotide-binding oligomerization domain-containing protein 2, sequence (Q9HC29 whole entry, the tested form may be a part): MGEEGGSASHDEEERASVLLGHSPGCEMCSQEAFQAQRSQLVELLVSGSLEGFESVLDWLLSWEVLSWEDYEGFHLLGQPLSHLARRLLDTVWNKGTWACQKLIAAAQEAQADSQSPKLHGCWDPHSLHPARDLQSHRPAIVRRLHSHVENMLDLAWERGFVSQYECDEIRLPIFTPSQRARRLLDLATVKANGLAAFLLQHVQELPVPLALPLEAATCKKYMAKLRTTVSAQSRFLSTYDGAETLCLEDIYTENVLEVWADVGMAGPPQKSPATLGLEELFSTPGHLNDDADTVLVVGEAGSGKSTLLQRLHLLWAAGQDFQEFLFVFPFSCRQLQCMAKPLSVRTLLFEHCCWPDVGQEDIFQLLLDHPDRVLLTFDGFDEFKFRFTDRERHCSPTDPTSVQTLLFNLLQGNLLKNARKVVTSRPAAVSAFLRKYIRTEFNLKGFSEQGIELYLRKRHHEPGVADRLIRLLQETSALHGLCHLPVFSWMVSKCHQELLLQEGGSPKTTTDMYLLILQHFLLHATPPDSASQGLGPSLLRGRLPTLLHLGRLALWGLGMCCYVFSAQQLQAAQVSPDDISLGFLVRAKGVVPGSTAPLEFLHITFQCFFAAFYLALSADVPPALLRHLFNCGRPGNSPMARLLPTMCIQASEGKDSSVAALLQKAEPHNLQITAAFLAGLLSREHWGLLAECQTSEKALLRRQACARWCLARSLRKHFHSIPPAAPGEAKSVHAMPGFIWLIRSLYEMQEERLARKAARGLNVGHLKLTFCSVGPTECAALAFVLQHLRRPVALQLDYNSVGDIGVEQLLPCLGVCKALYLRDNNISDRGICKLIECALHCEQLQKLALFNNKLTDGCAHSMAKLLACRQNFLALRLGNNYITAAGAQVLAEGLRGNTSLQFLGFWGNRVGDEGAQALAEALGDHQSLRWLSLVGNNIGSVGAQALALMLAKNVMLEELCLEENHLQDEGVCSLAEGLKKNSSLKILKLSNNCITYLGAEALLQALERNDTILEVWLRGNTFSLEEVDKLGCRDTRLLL

HEK293 [11] = assay: NOD2 signaling inhibitors in MDP-stimulated cells, cell-based, uHTS, luminescence (AID 2001); assay type: functional; conditions: Homo sapiens
HEK293 [12] = assay: inhibition of NOD1-driven NF-kB reporter – cell-based, luminescence, uHTS, primary screen (AID 1578); assay type: functional; conditions: Homo sapiens
cells = assay type: functional, cell-based
[13] = molecular target: Induced myeloid leukemia cell differentiation protein Mcl-1 (Homo sapiens, UniProt Q07820); assay type: functional
Induced myeloid leukemia cell differentiation protein Mcl-1, sequence (Q07820 whole entry): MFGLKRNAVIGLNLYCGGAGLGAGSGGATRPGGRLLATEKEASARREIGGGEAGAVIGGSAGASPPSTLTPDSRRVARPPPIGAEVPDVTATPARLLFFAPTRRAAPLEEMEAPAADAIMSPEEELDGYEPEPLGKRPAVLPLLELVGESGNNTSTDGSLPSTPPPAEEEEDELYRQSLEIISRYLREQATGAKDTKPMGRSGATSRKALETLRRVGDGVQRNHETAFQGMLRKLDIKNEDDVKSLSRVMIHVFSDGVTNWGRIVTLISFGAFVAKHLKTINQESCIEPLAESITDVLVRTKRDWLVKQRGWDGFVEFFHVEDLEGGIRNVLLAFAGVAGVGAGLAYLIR

Genome polyprotein = Genome polyprotein (dengue virus type 2, UniProt P29990); assay: flavivirus cap methylation enzyme inhibition – biochemical, confirmation dose response, primary screen (AID 588689); assay type: functional
Genome polyprotein, sequence (P29990 2492-3391 limits assumed): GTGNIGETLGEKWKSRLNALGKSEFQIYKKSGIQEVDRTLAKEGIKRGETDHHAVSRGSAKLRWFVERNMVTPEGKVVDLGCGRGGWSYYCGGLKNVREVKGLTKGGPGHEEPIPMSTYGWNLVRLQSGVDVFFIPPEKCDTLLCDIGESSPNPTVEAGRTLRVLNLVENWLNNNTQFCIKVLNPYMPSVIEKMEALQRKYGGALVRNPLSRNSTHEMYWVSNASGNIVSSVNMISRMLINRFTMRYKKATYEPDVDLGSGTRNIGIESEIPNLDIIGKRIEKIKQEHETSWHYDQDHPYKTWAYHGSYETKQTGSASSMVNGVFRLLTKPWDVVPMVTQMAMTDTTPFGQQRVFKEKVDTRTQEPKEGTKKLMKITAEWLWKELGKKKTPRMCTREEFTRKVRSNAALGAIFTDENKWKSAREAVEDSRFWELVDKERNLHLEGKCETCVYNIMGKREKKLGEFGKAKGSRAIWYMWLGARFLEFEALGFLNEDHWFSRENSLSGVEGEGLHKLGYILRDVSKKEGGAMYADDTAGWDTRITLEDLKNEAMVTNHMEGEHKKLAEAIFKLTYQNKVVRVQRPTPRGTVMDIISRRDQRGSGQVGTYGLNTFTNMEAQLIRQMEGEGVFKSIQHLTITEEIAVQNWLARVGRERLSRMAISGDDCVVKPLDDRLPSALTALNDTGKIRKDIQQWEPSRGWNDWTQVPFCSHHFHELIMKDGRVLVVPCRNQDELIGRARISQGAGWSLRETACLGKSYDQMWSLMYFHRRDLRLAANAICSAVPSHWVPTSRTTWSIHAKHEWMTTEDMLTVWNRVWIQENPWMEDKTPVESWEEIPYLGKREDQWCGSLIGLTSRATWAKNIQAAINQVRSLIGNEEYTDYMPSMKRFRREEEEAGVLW

[14] = molecular target: T1, RNA-binding protein pos-1 (Caenorhabditis elegans, UniProt G5EF15); assay: disruptors of C. elegans POS-1 RNA interaction – biochemical, fluorescence polarization, dose response (AID 1964);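 note: purified POS-1 fused to maltose binding protein made in E. coli; potency of compounds blocking POS-1 binding to fluorescent RNA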
T1 sequence (G5EF15 whole entry): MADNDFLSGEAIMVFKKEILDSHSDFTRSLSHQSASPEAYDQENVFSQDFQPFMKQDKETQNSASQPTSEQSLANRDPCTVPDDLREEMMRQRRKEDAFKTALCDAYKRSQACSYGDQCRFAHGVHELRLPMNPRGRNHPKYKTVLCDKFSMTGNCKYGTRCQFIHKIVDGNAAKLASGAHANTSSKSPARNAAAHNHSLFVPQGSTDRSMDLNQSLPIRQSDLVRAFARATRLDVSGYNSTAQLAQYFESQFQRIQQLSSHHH

Nonstructural protein 1 = Nonstructural protein 1 (Influenza A virus, UniProt Q194T2); assay type: functional, Influenza A virus (A/California/07/2009(H1N1))
Nonstructural protein 1, sequence (Q194T2 whole entry): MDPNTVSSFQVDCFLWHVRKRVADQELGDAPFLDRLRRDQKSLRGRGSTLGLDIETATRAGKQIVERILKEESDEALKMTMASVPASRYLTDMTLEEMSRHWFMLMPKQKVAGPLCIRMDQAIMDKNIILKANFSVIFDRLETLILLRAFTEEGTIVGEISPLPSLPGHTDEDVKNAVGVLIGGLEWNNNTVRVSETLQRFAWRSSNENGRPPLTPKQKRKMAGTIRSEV

Large T antigen = Large T antigen (Simian virus 40, UniProt P03070); assay type: functional, Betapolyomavirus macacae;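 note: Confirmatory-stage PubChem screen for compounds that inhibit SV40 T antigen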
Large T antigen, sequence (P03070 whole entry): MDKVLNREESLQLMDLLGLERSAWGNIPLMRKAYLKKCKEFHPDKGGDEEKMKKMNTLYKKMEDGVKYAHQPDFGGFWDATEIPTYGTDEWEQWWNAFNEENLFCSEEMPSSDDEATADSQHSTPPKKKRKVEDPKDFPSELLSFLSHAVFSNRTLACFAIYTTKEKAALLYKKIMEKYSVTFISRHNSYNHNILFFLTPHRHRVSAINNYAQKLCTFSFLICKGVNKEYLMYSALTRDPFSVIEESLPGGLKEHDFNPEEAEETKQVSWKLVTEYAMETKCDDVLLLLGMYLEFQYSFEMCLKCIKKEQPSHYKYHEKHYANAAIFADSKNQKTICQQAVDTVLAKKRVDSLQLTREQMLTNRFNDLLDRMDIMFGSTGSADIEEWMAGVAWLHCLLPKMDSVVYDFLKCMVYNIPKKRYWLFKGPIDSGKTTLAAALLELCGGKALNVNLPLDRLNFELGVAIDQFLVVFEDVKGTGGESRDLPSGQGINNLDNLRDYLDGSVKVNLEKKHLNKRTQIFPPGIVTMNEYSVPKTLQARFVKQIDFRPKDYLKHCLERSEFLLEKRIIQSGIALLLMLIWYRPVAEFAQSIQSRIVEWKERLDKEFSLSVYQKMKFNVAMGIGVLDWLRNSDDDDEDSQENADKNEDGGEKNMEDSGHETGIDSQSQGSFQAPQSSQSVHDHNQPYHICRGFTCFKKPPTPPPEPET

[15] = molecular target: T2, Zinc finger protein mex-5 (Caenorhabditis elegans, UniProt Q9XUB2); assay: potency of MEX-5 RNA-binding blockers – biochemical, C. elegans, fluorescence polarization, dose response (AID 1960)
T2 sequence (Q9XUB2 whole entry): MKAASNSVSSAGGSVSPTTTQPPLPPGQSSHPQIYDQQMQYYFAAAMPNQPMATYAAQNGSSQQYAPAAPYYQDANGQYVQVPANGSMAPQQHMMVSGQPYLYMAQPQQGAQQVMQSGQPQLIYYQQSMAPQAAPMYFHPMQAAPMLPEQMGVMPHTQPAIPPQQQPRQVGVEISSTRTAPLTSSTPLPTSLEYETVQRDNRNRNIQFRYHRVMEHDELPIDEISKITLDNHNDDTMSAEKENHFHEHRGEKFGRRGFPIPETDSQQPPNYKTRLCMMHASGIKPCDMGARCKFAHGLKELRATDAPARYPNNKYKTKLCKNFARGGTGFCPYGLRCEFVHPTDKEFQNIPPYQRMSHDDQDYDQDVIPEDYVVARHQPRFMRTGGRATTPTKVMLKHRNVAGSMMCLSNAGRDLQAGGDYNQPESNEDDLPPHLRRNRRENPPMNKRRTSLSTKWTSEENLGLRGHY

Leucine aminopeptidase = molecular target: T3, Leucine aminopeptidase (Plasmodium falciparum 3D7, UniProt Q8IL11); assay: P. falciparum M17LAP inhibitors, primary screen, biochemical, fluorogenic H-Leu-NHMec substrate, 1536-well (AID 1619); assay type: functional
T3 sequence (Q8IL11 whole entry): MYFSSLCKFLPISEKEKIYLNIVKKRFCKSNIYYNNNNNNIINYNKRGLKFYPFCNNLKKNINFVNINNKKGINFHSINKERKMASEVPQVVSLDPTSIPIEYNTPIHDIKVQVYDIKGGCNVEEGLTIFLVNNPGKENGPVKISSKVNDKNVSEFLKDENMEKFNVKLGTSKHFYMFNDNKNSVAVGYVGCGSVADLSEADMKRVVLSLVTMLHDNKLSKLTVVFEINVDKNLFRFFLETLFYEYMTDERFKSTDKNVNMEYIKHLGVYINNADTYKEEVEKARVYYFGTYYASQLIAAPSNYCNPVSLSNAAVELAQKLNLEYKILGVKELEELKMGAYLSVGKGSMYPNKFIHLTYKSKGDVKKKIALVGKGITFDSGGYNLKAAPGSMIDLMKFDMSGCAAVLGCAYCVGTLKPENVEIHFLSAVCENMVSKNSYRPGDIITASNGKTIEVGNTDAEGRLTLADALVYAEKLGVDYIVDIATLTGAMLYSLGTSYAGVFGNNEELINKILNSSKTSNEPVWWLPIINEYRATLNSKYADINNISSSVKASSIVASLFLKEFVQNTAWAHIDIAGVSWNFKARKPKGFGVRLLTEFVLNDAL

Aminopeptidase N = molecular target: T4, Aminopeptidase N (Plasmodium falciparum FcB1/Columbia, UniProt O96935); assay: malaria alanyl aminopeptidase activity blockers – biochemical, fluorogenic H-Leu-NHMec substrate, 1536-well (AID 1445); design: species or system Plasmodium falciparum 3D7, 3D7
T4 sequence (O96935 whole entry): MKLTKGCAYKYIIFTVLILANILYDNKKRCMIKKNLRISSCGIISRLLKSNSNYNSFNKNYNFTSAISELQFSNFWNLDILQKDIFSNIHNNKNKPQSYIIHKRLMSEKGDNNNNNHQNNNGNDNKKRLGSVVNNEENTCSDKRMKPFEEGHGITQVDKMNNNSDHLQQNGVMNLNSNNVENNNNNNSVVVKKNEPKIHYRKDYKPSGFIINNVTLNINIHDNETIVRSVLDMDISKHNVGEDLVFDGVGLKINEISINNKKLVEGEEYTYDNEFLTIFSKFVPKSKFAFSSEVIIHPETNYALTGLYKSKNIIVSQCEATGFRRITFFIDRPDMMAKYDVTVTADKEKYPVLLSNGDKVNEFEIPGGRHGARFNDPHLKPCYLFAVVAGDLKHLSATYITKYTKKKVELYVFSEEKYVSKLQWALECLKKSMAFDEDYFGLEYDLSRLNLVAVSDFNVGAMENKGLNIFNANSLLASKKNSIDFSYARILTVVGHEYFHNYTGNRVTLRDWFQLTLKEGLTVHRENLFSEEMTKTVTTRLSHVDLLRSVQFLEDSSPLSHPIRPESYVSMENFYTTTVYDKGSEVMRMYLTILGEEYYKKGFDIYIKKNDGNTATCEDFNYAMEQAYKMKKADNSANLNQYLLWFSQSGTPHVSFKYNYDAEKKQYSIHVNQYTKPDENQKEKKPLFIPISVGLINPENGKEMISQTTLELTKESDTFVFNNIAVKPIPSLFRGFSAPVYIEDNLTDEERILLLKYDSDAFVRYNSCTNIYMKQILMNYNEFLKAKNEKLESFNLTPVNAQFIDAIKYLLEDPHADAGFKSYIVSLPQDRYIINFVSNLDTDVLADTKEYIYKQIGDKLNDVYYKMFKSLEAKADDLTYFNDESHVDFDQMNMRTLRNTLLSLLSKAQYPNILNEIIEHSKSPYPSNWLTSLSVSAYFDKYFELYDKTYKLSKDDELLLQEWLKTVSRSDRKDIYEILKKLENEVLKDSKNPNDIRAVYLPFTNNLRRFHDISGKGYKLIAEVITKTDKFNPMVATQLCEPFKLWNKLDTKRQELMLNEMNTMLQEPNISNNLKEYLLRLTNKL

Hexokinase = molecular target: T5, Hexokinase (Trypanosoma brucei, UniProt Q38C41); assay: Confirmation assay for inhibitors of Trypanosoma brucei hexokinase 1-Analogue-first series. [Related pubchem assays (depositor defined):AID1430, AID1632, AID2516, AID2560, AID2579, AID2600, AID449725, AID492951]; assay type: functional
T5 sequence (Q38C41 whole entry): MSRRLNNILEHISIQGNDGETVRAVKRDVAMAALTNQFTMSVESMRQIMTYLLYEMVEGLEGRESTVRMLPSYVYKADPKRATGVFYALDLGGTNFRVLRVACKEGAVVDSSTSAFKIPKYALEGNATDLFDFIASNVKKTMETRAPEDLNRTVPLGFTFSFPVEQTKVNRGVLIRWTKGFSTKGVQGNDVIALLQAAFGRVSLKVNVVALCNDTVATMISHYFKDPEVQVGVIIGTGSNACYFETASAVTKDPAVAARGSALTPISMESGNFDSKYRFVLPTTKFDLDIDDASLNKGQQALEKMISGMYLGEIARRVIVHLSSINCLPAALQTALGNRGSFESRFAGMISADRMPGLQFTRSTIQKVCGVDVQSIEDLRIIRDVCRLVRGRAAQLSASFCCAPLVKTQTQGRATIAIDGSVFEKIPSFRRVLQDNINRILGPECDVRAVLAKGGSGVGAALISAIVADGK

[16] = A549 cell cytotoxicity, dose response, cytotoxicity control, plate reader, cherry-pick, antagonist series (AID 743412); assay type: functional, cell-based
[17] = blockers of bursicon-stimulated LGR2 cAMP reporter – cell-based, HEK293, CRE-luciferase reporter, cherry pick, set 2, dose response (AID 743343); assay type: functional;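 note: transfected cells were stimulated with diluted bursicon conditioned medium after compound addition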
INS1 = assay: INS-1E survival protection against cytokine death – cell-based, luminescence, retest, dose response (AID 449756); assay type: functional; conditions: Rattus norvegicus;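 note: cell death triggered by IL-1 beta plus TNF-alpha plus IFN-gamma mixture; protective hits raise ATP signal compared with cytokine alone wells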
[18] = blockade of melanocortin 4 receptor signaling – cell-based, plate reader, cherry pick, counter-screen for LGR2 antagonist project, dose response (AID 743444); assay type: functional;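 note: transfected HEK 293 cells stimulated with alpha-MSH peptide; potency of inhibitors of the alpha-MSH evoked signal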
[19] = toxicity toward HepG2 liver cells – cell-based, plate reader, cherry-pick, antagonist series, cytotoxicity control, dose response (AID 743416); assay type: functional
[20] = molecular target: DNA dC->dU-editing enzyme APOBEC-3A (Homo sapiens, UniProt P31941); assay: A3A deaminase inhibition for selectivity – biochemical, dose response (AID 504722); assay type: functional
DNA dC->dU-editing enzyme APOBEC-3A, sequence (P31941 whole entry): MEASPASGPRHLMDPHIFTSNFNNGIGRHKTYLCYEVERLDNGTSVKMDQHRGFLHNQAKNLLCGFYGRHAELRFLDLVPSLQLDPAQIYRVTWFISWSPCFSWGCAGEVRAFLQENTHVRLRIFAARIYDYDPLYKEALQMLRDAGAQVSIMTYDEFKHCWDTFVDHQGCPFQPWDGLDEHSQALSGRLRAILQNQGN

[21] = molecular target: DNA dC->dU-editing enzyme APOBEC-3G (Homo sapiens, UniProt Q9HC16); assay: Dose Response confirmation of small molecule APOBEC3G DNA Deaminase Inhibitors via a fluorescence-based single-stranded DNA deaminase assay. [Related pubchem assays (depositor defined):AID493012, AID493028]; assay type: functional
DNA dC->dU-editing enzyme APOBEC-3G, sequence (Q9HC16 whole entry): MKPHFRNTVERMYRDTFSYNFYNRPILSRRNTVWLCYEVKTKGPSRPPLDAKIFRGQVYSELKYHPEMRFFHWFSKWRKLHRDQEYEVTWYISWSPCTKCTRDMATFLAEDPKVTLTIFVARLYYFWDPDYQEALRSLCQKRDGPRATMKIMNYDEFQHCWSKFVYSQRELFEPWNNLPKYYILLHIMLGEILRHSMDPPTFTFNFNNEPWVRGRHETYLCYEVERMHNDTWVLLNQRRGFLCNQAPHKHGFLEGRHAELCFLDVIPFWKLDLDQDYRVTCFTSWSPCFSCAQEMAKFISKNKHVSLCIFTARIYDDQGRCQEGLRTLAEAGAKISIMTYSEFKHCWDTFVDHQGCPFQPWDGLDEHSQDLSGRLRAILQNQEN

G-protein coupled receptor 55, sequence (Q9Y2T6 whole entry): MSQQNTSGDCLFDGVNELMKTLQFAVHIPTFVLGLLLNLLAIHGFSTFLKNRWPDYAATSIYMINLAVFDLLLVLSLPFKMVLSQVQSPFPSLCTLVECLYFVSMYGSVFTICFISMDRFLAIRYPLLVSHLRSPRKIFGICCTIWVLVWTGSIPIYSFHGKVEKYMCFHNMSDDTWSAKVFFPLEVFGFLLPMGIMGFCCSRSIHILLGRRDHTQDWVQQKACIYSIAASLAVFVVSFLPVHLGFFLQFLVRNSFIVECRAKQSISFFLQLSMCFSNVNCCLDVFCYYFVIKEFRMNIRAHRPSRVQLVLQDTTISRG

COc1ccc(-c2cc(C(=O)Nc3cc(S(=O)(=O)N4CCOCC4)ccc3N3CCOCC3)c3ccccc3n2)cc1
EC50 [1]: 1.68 µM (active)

O=C(C1=C(O)C(=O)N(c2nccs2)C1c1ccccc1)c1ccc2c(c1)OCCO2 (stereo not given)
EC50 [2]: < 0.1 µM (active)
IC50 (HEK293 [3]): > 20 µM (inactive)
IC50 (HEK293 [4]): > 20 µM (inactive)
EC50 [5]: 4.2 µM (active)
IC50 (HEK293 [6]): > 20 µM (inactive)
EC50 [7]: 1.93 µM (active)
EC50 [8]: 0.146 µM (active)
EC50 [9]: 7.17 µM (active)
EC50 [10]: 5.45 µM (active)
IC50 (HEK293 [11]): 18.6 µM (inactive)
EC50 (HEK293 [12]): 11.5 µM (active)
EC50 (cells): 1.11 µM (active)

O=C(O)c1ccccc1NS(=O)(=O)c1ccc(NNC(=S)Nc2ccc(OC(F)F)cc2)c([N+](=O)[O-])c1
IC50 [13]: 2.95 µM (active)
IC50 (Genome polyprotein): 18.5 µM (active)
EC50 [14]: 7.38 µM (active)
IC50 (Nonstructural protein 1): 13 µM (active)
IC50 (Large T antigen): 29.8 µM (active)
EC50 [15]: 5.57 µM (active)
IC50 (Leucine aminopeptidase): 5.33 µM (active)
IC50 (Aminopeptidase N): 17.3 µM (active)

COc1ccc(C(=O)Nc2cc(Cl)ccc2C(=O)O)cc1OC
IC50 (Hexokinase): 15.5 µM (active)

O=C(NN1C(=O)c2ccccc2NC1c1ccco1)c1ccccc1 (stereo not given)
IC50 (Aminopeptidase N): 61.3 µM (active)

O=C(CN1C(=O)c2ccccc2S1(=O)=O)c1ccc(F)cc1
AC50 [16]: > 52 µM (inactive)
EC50 [2]: < 0.1 µM (active)
AC50 [17]: 2.75 µM (active)
AC50 (INS1): > 260 µM (inactive)
EC50 [5]: 1.12 µM (active)
EC50 [7]: 2.32 µM (active)
EC50 [8]: 11.4 µM (active)
AC50 [18]: 3.02 µM (active)
EC50 [9]: 5.89 µM (active)
AC50 [19]: > 52 µM (inactive)
EC50 (cells): 1.87 µM (active)

COc1cccc(C(=O)NCc2nnc(S)n2-c2cccc(C)c2)c1
IC50 [20]: > 100 µM (inactive)
IC50 [21]: 12.8 µM (active)

Cc1ccc(-c2nc3ccccc3[nH]2)cc1NC(=S)NC(=O)c1ccccc1Br
EC50 [1]: 2.9 µM (active)

COc1ccc(C(=O)Nc2ccccc2-c2nn[nH]n2)cc1
IC50 (Hexokinase): > 25 µM (inactive)

Sc1nc(-c2ccccc2)cn1/N=C/c1cccnc1
IC50 [20]: > 100 µM (inactive)
IC50 [21]: 4.77 µM (active)
